Assay results published in PubChem BioAssay (NCI).
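96-well plates; 48 h exposure; 5 concentrations. Endpoints by linear interpolation between flanking doses. Not reached: highest tested concentration assigned. GI50 = concentration required for 50% inhibition of growth. TGI is the concentration that stops growth completely.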

Columns and labels:
Test in all cases: NCI anticancer screen, dose series, 48 h
786-0 renal = tested on: 786-0 renal
A498 renal = tested on: A498 renal
A549 NSCLC = tested on: A549 NSCLC
ACHN renal = tested on: ACHN renal
BT-549 breast = tested on: BT-549 breast
CAKI-1 renal = tested on: CAKI-1 renal
CCRF-CEM leukemia = tested on: CCRF-CEM leukemia
COLO 205 colon = tested on: COLO 205 colon
DU-145 prostate = tested on: DU-145 prostate
EKVX NSCLC = tested on: EKVX NSCLC
HCC-2998 colon = tested on: HCC-2998 colon
HCT-116 colon = tested on: HCT-116 colon
HCT-15 colon = tested on: HCT-15 colon
HL-60(TB) leukemia = tested on: HL-60(TB) leukemia
HOP-62 NSCLC = tested on: HOP-62 NSCLC
HOP-92 NSCLC = tested on: HOP-92 NSCLC
HS 578T breast = tested on: HS 578T breast
HT29 colon = tested on: HT29 colon
IGROV1 ovarian = tested on: IGROV1 ovarian
K-562 leukemia = tested on: K-562 leukemia
KM12 colon = tested on: KM12 colon
LOX IMVI melanoma = tested on: LOX IMVI melanoma
M14 melanoma = tested on: M14 melanoma
MALME-3M melanoma = tested on: MALME-3M melanoma
MCF7 breast = tested on: MCF7 breast
MDA-MB-231 breast = tested on: MDA-MB-231 breast
MDA-MB-435 = tested on: MDA-MB-435
MDA-MB-468 breast = tested on: MDA-MB-468 breast
MOLT-4 leukemia = tested on: MOLT-4 leukemia
NCI-H226 lung = tested on: NCI-H226 lung
NCI-H23 lung = tested on: NCI-H23 lung
NCI-H460 lung = tested on: NCI-H460 lung
NCI-H522 lung = tested on: NCI-H522 lung
OVCAR-3 ovarian = tested on: OVCAR-3 ovarian
OVCAR-4 ovarian = tested on: OVCAR-4 ovarian
OVCAR-5 ovarian = tested on: OVCAR-5 ovarian
OVCAR-8 ovarian = tested on: OVCAR-8 ovarian
PC-3 prostate = tested on: PC-3 prostate
RPMI-8226 leukemia = tested on: RPMI-8226 leukemia
RXF 393 renal = tested on: RXF 393 renal
SF-295 CNS = tested on: SF-295 CNS
SF-539 CNS = tested on: SF-539 CNS
SK-MEL-2 melanoma = tested on: SK-MEL-2 melanoma
SK-MEL-28 melanoma = tested on: SK-MEL-28 melanoma
SK-MEL-5 melanoma = tested on: SK-MEL-5 melanoma
SK-OV-3 ovarian = tested on: SK-OV-3 ovarian
SN12C renal = tested on: SN12C renal
SNB-19 CNS = tested on: SNB-19 CNS
SNB-75 CNS = tested on: SNB-75 CNS
SR leukemia = tested on: SR leukemia
SW-620 colon = tested on: SW-620 colon
T-47D breast = tested on: T-47D breast
TK-10 renal = tested on: TK-10 renal
U251 CNS = tested on: U251 CNS
UACC-257 melanoma = tested on: UACC-257 melanoma
UACC-62 melanoma = tested on: UACC-62 melanoma
UO-31 renal = tested on: UO-31 renal

## O=c1oc2ccc(-c3ccc(F)cc3F)cc2c(=O)n1-c1ccc(F)cc1
786-0 renal
  GI50: 5.51 µM
  TGI: 53.7 µM
A498 renal
  GI50: 1.91 µM
  TGI: 6.17 µM
A549 NSCLC
  GI50: 3.25 µM
  TGI: > 100 µM
ACHN renal
  GI50: 3.88 µM
  TGI: > 100 µM
BT-549 breast
  GI50: 1.92 µM
  TGI: 5.89 µM
CAKI-1 renal
  GI50: 1.48 µM
  TGI: 5.1 µM
CCRF-CEM leukemia
  GI50: 3.18 µM
  TGI: 9.84 µM
COLO 205 colon
  GI50: 16.3 µM
  TGI: 34.8 µM
DU-145 prostate
  GI50: 3.3 µM
  TGI: > 100 µM
EKVX NSCLC
  GI50: 2.8 µM
  TGI: > 100 µM
HCC-2998 colon
  GI50: 3.31 µM
  TGI: 13.9 µM
HCT-116 colon
  GI50: 3.12 µM
  TGI: 18.8 µM
HCT-15 colon
  GI50: 2.91 µM
  TGI: > 100 µM
HL-60(TB) leukemia
  GI50: 2.01 µM
  TGI: 6.13 µM
HOP-62 NSCLC
  GI50: 2.39 µM
  TGI: 6.93 µM
HOP-92 NSCLC
  GI50: 0.95 µM
  TGI: 4.48 µM
HS 578T breast
  GI50: 2.27 µM
  TGI: 7.51 µM
HT29 colon
  GI50: 10.3 µM
  TGI: 75.8 µM
IGROV1 ovarian
  GI50: 3.02 µM
  TGI: > 100 µM
K-562 leukemia
  GI50: 1.58 µM
  TGI: > 100 µM
KM12 colon
  GI50: 3.07 µM
  TGI: 10.7 µM
LOX IMVI melanoma
  GI50: 3.21 µM
  TGI: 11.2 µM
M14 melanoma
  GI50: 3.49 µM
  TGI: > 100 µM
MALME-3M melanoma
  GI50: 1.62 µM
  TGI: 5.34 µM
MCF7 breast
  GI50: 2.51 µM
  TGI: > 100 µM
MDA-MB-231 breast
  GI50: 1.76 µM
  TGI: 4.41 µM
MDA-MB-435
  GI50: 1.73 µM
  TGI: 7.09 µM
MDA-MB-468 breast
  GI50: 1.87 µM
  TGI: 5.67 µM
MOLT-4 leukemia
  GI50: 2.08 µM
  TGI: 8.27 µM
NCI-H226 lung
  GI50: 1.45 µM
  TGI: 6.5 µM
NCI-H23 lung
  GI50: 2.08 µM
  TGI: 6.78 µM
NCI-H460 lung
  GI50: 2.3 µM
  TGI: 11.9 µM
NCI-H522 lung
  GI50: 1.23 µM
  TGI: 6.15 µM
OVCAR-3 ovarian
  GI50: 2.49 µM
  TGI: 14 µM
OVCAR-4 ovarian
  GI50: 2.08 µM
  TGI: 54.1 µM
OVCAR-5 ovarian
  GI50: 3.2 µM
  TGI: > 100 µM
OVCAR-8 ovarian
  GI50: 3.52 µM
  TGI: > 100 µM
PC-3 prostate
  GI50: 2.8 µM
  TGI: 11.7 µM
RPMI-8226 leukemia
  GI50: 1.33 µM
  TGI: 7.13 µM
RXF 393 renal
  GI50: 1.55 µM
  TGI: 5.63 µM
SF-295 CNS
  GI50: 3.46 µM
  TGI: 12.8 µM
SF-539 CNS
  GI50: 2.88 µM
  TGI: 12.1 µM
SK-MEL-2 melanoma
  GI50: 1.79 µM
  TGI: 4.6 µM
SK-MEL-28 melanoma
  GI50: 3.23 µM
  TGI: > 100 µM
SK-MEL-5 melanoma
  GI50: 0.799 µM
  TGI: 2.3 µM
SK-OV-3 ovarian
  GI50: 2.15 µM
  TGI: 6.37 µM
SN12C renal
  GI50: 2.12 µM
  TGI: 8.04 µM
SNB-19 CNS
  GI50: 3.58 µM
  TGI: > 100 µM
SNB-75 CNS
  GI50: 1.38 µM
  TGI: 5.53 µM
SR leukemia
  GI50: 2.45 µM
  TGI: > 100 µM
SW-620 colon
  GI50: 3.23 µM
  TGI: > 100 µM
T-47D breast
  GI50: 0.502 µM
  TGI: 4.32 µM
TK-10 renal
  GI50: 2.78 µM
  TGI: > 100 µM
U251 CNS
  GI50: 2.82 µM
  TGI: 17.3 µM
UACC-257 melanoma
  GI50: 1.64 µM
  TGI: 6.78 µM
UACC-62 melanoma
  GI50: 1.37 µM
  TGI: 4.65 µM
UO-31 renal
  GI50: 2.3 µM
  TGI: 9.44 µM
